Reference: publication PMC11233931, “Remodeling tumor‐associated macrophage for anti‐cancer effects by rational design of irreversible inhibition of mitogen‐activated protein kinase‐activated protein kinase 2” (MedComm, 2024)

What was measured:
Assay in all cases: Eurofins kinase selectivity profile against 380 other human recombinant kinases (Table S2)
Assay type in all cases: biochemical
[1] = target: T1, 380 human recombinant protein kinases (Homo sapiens, UniProt Q9P1W9); conditions: Pim-2(h), read-out: Inhibition rate
T1 construct: purchased Eurofins (Celle Lévescault)
In short: (§1)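 Values come from a contract kinase-profiling service that tested the compound at multiple concentrations across 380 recombinant human kinases, as an off-target check against the MK2 activity.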

[2] = target: T2, 380 human recombinant protein kinases (Homo sapiens, UniProt P31751); conditions: PKBβ(h), read-out: Inhibition rate
T2 construct: purchased Eurofins (Celle Lévescault)
In short: as §1

[3] = target: T3, 380 human recombinant protein kinases (Homo sapiens, UniProt P49840); conditions: GSK3α(h), read-out: Inhibition rate
T3 construct: purchased Eurofins (Celle Lévescault)
In short: as §1

[4] = target: T4, 380 human recombinant protein kinases (Homo sapiens, UniProt Q06187, R28H); conditions: BTK(R28H)(h), read-out: Inhibition rate
T4 construct: purchased Eurofins (Celle Lévescault)
In short: as §1

[5] = target: T5, 380 human recombinant protein kinases (Homo sapiens, UniProt P54756); conditions: EphA5(h), read-out: Inhibition rate
T5 construct: purchased Eurofins (Celle Lévescault)
In short: as §1

[6] = target: T6, 380 human recombinant protein kinases (Homo sapiens, UniProt Q13627); conditions: DYRK1A(h), read-out: Inhibition rate
T6 construct: purchased Eurofins (Celle Lévescault)
In short: as §1

[7] = target: T7, 380 human recombinant protein kinases (Homo sapiens, UniProt O60331); conditions: PIP5K1γ(h), read-out: Inhibition rate (%)
T7 construct: purchased Eurofins (Celle Lévescault)
In short: as §1

[8] = target: T8, 380 human recombinant protein kinases (Homo sapiens, UniProt Q8IY84); conditions: NIM1(h), read-out: Inhibition rate
T8 construct: purchased Eurofins (Celle Lévescault)
In short: as §1

[9] = target: T9, 380 human recombinant protein kinases (Homo sapiens, UniProt Q02763); conditions: Tie2 (h), read-out: Inhibition rate (%)
T9 construct: purchased Eurofins (Celle Lévescault)
In short: as §1

[10] = target: T10, 380 human recombinant protein kinases (Homo sapiens, UniProt P51812); conditions: Rsk2(h), read-out: Inhibition rate (%)
T10 construct: purchased Eurofins (Celle Lévescault)
In short: as §1

[11] = target: T11, 380 human recombinant protein kinases (Homo sapiens, UniProt O43318); conditions: TAK1(h), read-out: Inhibition rate (%)
T11 construct: purchased Eurofins (Celle Lévescault)
T11 sequence (O43318 1-606): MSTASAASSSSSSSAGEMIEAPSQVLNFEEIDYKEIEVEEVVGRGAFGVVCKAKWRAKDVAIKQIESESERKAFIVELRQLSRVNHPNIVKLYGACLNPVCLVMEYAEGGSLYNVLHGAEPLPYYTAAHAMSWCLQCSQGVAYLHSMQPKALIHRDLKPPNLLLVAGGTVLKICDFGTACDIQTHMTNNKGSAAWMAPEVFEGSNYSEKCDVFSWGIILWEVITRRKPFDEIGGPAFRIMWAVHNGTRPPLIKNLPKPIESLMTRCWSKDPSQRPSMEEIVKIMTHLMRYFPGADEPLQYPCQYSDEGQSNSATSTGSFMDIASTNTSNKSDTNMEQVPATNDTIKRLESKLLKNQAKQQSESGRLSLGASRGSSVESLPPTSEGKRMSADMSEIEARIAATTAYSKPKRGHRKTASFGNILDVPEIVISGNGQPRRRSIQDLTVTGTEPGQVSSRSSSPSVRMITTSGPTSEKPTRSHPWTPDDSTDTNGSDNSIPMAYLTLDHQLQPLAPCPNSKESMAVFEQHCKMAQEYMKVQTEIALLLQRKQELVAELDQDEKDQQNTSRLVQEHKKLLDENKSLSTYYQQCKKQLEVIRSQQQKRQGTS
In short: as §1

[12] = target: T12, 380 human recombinant protein kinases (Homo sapiens, UniProt Q9NYV4); conditions: CDK12/cyclinK(h), read-out: Inhibition rate
T12 construct: purchased Eurofins (Celle Lévescault)
In short: as §1

[13] = target: T13, 380 human recombinant protein kinases (Homo sapiens, UniProt P48426); conditions: PIP4K2α(h), read-out: Inhibition rate (%)
T13 construct: purchased Eurofins (Celle Lévescault)
T13 sequence (P48426 1-406): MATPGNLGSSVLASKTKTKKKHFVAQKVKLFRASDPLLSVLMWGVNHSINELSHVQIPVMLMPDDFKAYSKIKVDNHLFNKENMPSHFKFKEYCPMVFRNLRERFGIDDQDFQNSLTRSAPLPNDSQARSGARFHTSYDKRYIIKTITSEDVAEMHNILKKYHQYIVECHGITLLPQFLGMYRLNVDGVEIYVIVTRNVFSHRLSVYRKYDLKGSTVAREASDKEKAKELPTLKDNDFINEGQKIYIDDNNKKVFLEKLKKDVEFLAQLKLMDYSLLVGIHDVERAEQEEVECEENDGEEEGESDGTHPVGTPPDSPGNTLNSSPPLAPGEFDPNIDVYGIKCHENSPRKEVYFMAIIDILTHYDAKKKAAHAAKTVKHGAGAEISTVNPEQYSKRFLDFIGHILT
In short: as §1

[14] = target: T14, 380 human recombinant protein kinases (Homo sapiens, UniProt P07947); conditions: Yes(h), read-out: Inhibition rate (%)
T14 construct: purchased Eurofins (Celle Lévescault)
In short: as §1

T7 sequence (O60331 whole entry): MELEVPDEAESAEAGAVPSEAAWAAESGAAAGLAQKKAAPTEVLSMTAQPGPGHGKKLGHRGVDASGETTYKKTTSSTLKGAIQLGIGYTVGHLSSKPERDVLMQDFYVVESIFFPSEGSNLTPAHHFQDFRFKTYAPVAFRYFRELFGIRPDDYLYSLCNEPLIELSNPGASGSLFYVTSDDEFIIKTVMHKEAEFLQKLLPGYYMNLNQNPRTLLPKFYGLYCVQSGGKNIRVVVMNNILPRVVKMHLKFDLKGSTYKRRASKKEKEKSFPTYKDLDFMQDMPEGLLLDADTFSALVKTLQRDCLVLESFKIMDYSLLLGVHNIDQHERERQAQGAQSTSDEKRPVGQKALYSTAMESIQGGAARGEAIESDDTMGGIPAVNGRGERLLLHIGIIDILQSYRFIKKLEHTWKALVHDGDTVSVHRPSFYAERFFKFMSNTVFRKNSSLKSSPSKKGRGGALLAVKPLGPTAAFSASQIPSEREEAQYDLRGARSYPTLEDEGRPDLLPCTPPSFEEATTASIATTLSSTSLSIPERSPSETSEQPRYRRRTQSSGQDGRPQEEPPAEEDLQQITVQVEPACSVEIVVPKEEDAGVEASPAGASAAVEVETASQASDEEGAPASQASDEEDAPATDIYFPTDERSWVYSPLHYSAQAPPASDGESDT
T4 sequence (Q06187 whole entry R28H): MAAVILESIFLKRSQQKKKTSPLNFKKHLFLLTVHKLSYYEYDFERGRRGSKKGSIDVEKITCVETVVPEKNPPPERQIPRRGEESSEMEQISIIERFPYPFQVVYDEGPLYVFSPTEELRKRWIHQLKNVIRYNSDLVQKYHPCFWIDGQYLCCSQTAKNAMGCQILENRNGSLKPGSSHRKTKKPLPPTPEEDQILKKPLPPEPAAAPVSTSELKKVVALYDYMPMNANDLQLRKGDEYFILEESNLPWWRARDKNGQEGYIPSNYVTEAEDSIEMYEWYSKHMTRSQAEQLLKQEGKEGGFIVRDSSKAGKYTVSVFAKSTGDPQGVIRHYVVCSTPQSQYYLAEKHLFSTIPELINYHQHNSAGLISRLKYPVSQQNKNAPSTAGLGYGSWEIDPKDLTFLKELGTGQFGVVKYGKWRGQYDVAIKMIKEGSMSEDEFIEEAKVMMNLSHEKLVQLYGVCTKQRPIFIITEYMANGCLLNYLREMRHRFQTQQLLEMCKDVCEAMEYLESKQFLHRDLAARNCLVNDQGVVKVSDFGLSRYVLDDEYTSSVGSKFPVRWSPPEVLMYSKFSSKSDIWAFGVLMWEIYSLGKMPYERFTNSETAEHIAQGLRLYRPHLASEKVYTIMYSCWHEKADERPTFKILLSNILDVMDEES
T2 sequence (P31751 whole entry): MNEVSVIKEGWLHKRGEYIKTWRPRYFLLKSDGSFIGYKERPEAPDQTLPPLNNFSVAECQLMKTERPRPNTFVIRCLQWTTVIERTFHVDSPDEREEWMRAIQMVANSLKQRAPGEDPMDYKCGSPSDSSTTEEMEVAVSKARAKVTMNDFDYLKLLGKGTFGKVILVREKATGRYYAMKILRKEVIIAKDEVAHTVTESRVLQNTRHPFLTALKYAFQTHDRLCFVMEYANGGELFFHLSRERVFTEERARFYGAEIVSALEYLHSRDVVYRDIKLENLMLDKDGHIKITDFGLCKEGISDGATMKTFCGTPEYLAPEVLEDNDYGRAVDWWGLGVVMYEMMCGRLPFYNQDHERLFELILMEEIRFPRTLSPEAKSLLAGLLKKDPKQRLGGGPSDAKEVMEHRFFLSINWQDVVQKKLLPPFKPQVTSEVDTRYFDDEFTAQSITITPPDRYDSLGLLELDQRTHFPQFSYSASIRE
T8 sequence (Q8IY84 whole entry): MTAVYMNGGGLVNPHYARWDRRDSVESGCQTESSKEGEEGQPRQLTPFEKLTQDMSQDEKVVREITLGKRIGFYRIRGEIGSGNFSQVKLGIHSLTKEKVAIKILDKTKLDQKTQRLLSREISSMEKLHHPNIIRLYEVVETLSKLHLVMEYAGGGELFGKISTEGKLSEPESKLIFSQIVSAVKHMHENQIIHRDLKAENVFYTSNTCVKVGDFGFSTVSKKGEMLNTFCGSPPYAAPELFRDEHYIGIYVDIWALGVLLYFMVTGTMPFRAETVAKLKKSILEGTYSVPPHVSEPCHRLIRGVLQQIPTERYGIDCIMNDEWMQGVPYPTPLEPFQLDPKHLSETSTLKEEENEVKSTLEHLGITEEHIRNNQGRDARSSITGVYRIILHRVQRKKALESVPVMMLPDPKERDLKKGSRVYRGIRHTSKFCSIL
T12 sequence (Q9NYV4 whole entry): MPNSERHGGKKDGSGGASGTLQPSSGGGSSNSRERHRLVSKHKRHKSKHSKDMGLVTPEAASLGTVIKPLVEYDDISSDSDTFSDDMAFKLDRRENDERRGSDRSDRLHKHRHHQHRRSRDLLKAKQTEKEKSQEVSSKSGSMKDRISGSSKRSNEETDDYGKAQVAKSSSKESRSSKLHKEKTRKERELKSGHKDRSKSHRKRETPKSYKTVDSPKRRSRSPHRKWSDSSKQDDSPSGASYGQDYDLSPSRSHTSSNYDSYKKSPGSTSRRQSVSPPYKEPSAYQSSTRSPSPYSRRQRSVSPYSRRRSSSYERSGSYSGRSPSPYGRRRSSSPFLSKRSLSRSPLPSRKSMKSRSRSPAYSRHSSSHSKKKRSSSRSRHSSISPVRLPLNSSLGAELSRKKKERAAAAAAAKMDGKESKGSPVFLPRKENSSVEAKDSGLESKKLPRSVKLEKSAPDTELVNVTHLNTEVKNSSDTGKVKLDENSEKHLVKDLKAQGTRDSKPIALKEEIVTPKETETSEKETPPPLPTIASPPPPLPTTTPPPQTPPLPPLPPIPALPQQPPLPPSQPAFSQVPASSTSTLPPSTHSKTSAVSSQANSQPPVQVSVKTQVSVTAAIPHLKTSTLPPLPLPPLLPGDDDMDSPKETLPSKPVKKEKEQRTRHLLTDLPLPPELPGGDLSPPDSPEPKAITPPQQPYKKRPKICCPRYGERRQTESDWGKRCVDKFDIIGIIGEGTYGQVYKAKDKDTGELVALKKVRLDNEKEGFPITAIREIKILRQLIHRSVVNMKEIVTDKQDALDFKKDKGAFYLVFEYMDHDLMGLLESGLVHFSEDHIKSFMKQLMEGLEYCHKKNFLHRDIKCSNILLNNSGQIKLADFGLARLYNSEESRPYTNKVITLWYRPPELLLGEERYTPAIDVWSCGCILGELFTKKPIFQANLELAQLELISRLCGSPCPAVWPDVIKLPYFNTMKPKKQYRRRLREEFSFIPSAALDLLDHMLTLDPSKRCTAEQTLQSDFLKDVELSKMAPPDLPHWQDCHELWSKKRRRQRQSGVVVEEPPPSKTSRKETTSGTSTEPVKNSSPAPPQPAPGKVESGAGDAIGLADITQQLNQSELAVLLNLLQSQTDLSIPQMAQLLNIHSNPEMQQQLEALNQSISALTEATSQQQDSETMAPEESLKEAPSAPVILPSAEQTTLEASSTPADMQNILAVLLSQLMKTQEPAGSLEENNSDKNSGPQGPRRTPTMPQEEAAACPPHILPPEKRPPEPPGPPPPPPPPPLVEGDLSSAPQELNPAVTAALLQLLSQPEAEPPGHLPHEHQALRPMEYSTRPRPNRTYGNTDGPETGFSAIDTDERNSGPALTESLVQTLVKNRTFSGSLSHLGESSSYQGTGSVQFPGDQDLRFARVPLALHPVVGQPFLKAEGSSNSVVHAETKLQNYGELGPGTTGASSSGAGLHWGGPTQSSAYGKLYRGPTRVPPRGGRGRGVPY
T9 sequence (Q02763 23-1124): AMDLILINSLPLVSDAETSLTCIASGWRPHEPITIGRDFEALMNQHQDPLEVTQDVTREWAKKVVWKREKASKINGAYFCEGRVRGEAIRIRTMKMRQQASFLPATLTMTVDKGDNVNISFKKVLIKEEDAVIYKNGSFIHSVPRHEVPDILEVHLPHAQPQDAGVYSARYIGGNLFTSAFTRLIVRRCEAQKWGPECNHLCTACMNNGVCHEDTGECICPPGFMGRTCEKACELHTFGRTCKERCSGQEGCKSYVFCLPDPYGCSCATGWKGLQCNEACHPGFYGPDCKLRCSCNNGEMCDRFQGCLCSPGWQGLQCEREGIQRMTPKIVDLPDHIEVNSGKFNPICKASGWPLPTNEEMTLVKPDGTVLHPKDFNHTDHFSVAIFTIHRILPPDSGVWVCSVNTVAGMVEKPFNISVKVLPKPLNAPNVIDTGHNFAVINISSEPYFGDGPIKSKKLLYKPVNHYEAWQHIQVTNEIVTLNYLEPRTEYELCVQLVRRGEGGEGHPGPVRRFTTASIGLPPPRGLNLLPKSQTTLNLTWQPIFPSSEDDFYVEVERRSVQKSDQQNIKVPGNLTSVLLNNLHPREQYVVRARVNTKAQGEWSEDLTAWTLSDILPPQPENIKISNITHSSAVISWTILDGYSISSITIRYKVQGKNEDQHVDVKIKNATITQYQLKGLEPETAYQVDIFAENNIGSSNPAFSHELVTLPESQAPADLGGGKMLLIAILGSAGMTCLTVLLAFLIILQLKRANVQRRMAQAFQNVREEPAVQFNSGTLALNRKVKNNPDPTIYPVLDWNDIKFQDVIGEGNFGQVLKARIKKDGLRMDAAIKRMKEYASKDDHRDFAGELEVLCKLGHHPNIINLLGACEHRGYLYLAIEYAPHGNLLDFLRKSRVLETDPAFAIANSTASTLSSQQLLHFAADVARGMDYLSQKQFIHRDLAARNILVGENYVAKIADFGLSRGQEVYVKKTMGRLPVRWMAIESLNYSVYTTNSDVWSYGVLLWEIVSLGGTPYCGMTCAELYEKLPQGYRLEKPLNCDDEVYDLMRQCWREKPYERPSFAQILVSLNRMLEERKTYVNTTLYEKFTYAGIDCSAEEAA

Which inhibition at 0.01 µM ([1]; 10 nM) does the source give for `C=CC(=O)Nc1cc(-c2cc(-c3cc4c([nH]3)CCNC4=O)ccn2)ccc1OC(F)(F)F` [compound 11] here?
Its inhibition at 0.01 µM is -3%.

What about the inhibition at 0.1 µM ([1]; 100 nM) of the same compound?
Its inhibition at 0.1 µM is 5%.

What about the inhibition at 1 µM ([1]; 1000 nM) of the same compound?
Its inhibition at 1 µM is 6%.

What about the inhibition at 0.01 µM ([2]; 10 nM) of the same compound?
The inhibition at 0.01 µM was 1%.

And the inhibition at 0.1 µM ([2]; 100 nM)?
Its inhibition at 0.1 µM is 3%.

And the inhibition at 1 µM ([2]; 1000 nM)?
The inhibition at 1 µM was 0%.

What about the inhibition at 0.01 µM ([3]; 10 nM) of the same compound?
The inhibition at 0.01 µM was 15%.

And the inhibition at 0.1 µM ([3]; 100 nM)?
The inhibition at 0.1 µM was -9%.

And the inhibition at 1 µM ([3]; 1000 nM)?
Its inhibition at 1 µM is 10%.

And the inhibition at 0.01 µM ([4]; 10 nM)?
Its inhibition at 0.01 µM is -27%.

What about the inhibition at 0.1 µM ([4]; 100 nM) of the same compound?
The inhibition at 0.1 µM was 6%.

What about the inhibition at 1 µM ([4]; 1000 nM) of the same compound?
Its inhibition at 1 µM is 1%.

What about the inhibition at 0.01 µM ([5]; 10 nM) of the same compound?
Its inhibition at 0.01 µM is -1%.

And the inhibition at 0.1 µM ([5]; 100 nM)?
The inhibition at 0.1 µM was 4%.

And the inhibition at 1 µM ([5]; 1000 nM)?
Its inhibition at 1 µM is 1%.

And the inhibition at 0.01 µM ([6]; 10 nM)?
The inhibition at 0.01 µM was 20%.

And the inhibition at 0.1 µM ([6]; 100 nM)?
The inhibition at 0.1 µM was 76%.

What about the inhibition at 1 µM ([6]; 1000 nM) of the same compound?
The inhibition at 1 µM was 96%.

And the inhibition at 0.01 µM ([7]; 10 nM)?
The inhibition at 0.01 µM was 0%.

And the inhibition at 0.1 µM ([7]; 100 nM)?
Its inhibition at 0.1 µM is -1%.

What about the inhibition at 1 µM ([7]; 1000 nM) of the same compound?
Its inhibition at 1 µM is 3%.

What about the inhibition at 0.01 µM ([8]; 10 nM) of the same compound?
Its inhibition at 0.01 µM is -4%.

And the inhibition at 0.1 µM ([8]; 100 nM)?
Its inhibition at 0.1 µM is -7%.

What about the inhibition at 1 µM ([8]; 1000 nM) of the same compound?
Its inhibition at 1 µM is -3%.

And the inhibition at 0.01 µM ([9]; 10 nM)?
The inhibition at 0.01 µM was 0%.

What about the inhibition at 0.1 µM ([9]; 100 nM) of the same compound?
The inhibition at 0.1 µM was 10%.

And the inhibition at 1 µM ([9]; 1000 nM)?
The inhibition at 1 µM was 24%.

And the inhibition at 0.01 µM ([10]; 10 nM)?
Its inhibition at 0.01 µM is -6%.

And the inhibition at 0.1 µM ([10]; 100 nM)?
The inhibition at 0.1 µM was -11%.

And the inhibition at 1 µM ([10]; 1000 nM)?
Its inhibition at 1 µM is -3%.

And the inhibition at 0.01 µM ([11]; 10 nM)?
The inhibition at 0.01 µM was 9%.

And the inhibition at 0.1 µM ([11]; 100 nM)?
Its inhibition at 0.1 µM is 2%.

What about the inhibition at 1 µM ([11]; 1000 nM) of the same compound?
The inhibition at 1 µM was 47%.

What about the inhibition at 0.01 µM ([12]; 10 nM) of the same compound?
Its inhibition at 0.01 µM is -1%.

And the inhibition at 0.1 µM ([12]; 100 nM)?
The inhibition at 0.1 µM was 1%.

And the inhibition at 1 µM ([12]; 1000 nM)?
Its inhibition at 1 µM is 5%.

What about the inhibition at 0.01 µM ([13]; 10 nM) of the same compound?
The inhibition at 0.01 µM was -1%.

What about the inhibition at 0.1 µM ([13]; 100 nM) of the same compound?
The inhibition at 0.1 µM was -3%.

What about the inhibition at 1 µM ([13]; 1000 nM) of the same compound?
The inhibition at 1 µM was -1%.

And the inhibition at 0.01 µM ([14]; 10 nM)?
The inhibition at 0.01 µM was -2%.

What about the inhibition at 0.1 µM ([14]; 100 nM) of the same compound?
The inhibition at 0.1 µM was 0%.

And the inhibition at 1 µM ([14]; 1000 nM)?
Its inhibition at 1 µM is -3%.
